Columns and labels:
∆pyr K. oxytoca = experiment: RNA-seq of compound-supplemented ∆pyr K. oxytoca; assay type: cell-based, Klebsiella oxytoca ATCC 8724; conditions: 10 µM
Experimental: A ∆pyr K. oxytoca glycerol stock was streaked onto an LB-Agar plate supplemented with spectinomycin (50 µg/mL) and incubated aerobically at 30°C for 24 h in a stationary incubator. Single colonies were grown for 24 h aerobically in 5 mL of M9 minimal medium supplemented with 5 g/L casamino acids and 0.4% D-galactose at 30 °C and 250 rpm. Each ∆pyr K. oxytoca overnight culture was diluted 1:1000 into fresh medium (5 mL) and incubated aerobically at 30 °C and 250 rpm to mid-exponential growth (OD600 = 0.8). These conditions abrogated both detectable pyrazine and pyrazinone production. At this point, 10 µM of compound in DMSO, were added to the cultures; an equal volume of DMSO was added to cultures without compound as a solvent vehicle control. The cultures were incubated under aerobic conditions with the compounds for one hour at 30 °C and at 250 rpm. After incubation, the cultures were centrifuged, the supernatants were decanted, and the cell pellets were quickly resuspended in 5 mL of Bacterial RNAProtect (Qiagen). The samples were centrifuged again, and the pellets were frozen on dry ice and stored at −80 °C until RNA extraction. The processed cell pellets were thawed on ice and resuspended in 200 µL of lysis buffer (10 mM Tris, 1 mM EDTA, 5 mg/mL lysozyme, 12.5 µg/mL proteinase K [pH 8.0]) and incubated at room temperature for 10 min. The RNA was extracted via the Qiagen RNeasy Mini kit, treated with TURBO DNase in a total volume of 100 µL at room temperature for 30 min, and extracted again using an RNeasy Mini kit. RNA-seq analysis was conducted by the Yale Center for Genome Analysis. Sequences were aligned to the K. oxytoca ATCC 8724 genome (NC_016612.1). Differential expression analysis was performed through DESeq2 and pathway enrichment analysis was performed through the Funage-Pro web-based platform.

CXCR4 = biological target: T1, CXCR4 (Homo sapiens, UniProt P61073); experiment: PRESTO-Tango GPCR screen; assay type: cell-based; conditions: 100 µM
T1 construct: purchased PRESTO-Tango GPCR kit (Roth lab / Addgene)
T1 sequence (P61073 whole entry): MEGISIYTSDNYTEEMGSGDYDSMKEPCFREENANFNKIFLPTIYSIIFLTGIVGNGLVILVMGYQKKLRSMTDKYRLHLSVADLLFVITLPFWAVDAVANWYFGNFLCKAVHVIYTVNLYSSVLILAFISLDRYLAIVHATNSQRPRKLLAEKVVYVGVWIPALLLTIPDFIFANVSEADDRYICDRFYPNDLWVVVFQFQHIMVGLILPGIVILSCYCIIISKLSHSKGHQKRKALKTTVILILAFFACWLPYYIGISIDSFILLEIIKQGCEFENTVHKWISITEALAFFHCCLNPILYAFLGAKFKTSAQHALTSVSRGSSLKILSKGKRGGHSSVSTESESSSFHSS
Procedure, shortened: (§1)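 In this arrestin-recruitment reporter assay, HEK293-derived HTLA cells expressing a transfected receptor-Tango fusion are treated for 20 h with compound at a final 100 μM. Luciferase output is quantified with Bright-Glo and reported relative to PBS.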

PTH1R = biological target: T2, PTH1R (Homo sapiens, UniProt Q03431); experiment: PRESTO-Tango GPCR screen; assay type: cell-based; conditions: 100 µM
T2 construct: purchased PRESTO-Tango GPCR kit (Roth lab / Addgene)
T2 sequence (Q03431 27-593): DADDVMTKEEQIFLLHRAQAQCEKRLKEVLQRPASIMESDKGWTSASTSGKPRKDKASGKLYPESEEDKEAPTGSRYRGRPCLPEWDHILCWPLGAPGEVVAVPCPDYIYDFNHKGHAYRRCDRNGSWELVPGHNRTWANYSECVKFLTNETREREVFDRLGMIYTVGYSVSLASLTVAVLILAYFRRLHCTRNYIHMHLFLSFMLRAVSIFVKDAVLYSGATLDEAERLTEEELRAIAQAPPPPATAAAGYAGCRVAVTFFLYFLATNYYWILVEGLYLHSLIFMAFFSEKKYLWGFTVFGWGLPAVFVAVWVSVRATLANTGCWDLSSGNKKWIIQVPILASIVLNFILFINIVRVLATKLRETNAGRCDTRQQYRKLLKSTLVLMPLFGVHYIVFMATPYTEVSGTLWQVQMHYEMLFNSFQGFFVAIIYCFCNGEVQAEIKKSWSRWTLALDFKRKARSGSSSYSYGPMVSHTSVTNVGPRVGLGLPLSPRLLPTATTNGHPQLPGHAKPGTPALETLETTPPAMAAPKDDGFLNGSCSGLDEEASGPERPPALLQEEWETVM
Procedure, shortened: as §1

CYSLTR2 = biological target: T3, CYSLTR2 (Homo sapiens, UniProt Q9NS75); experiment: PRESTO-Tango GPCR screen; assay type: cell-based; conditions: 100 µM
T3 construct: purchased PRESTO-Tango GPCR kit (Roth lab / Addgene)
T3 sequence (Q9NS75 whole entry): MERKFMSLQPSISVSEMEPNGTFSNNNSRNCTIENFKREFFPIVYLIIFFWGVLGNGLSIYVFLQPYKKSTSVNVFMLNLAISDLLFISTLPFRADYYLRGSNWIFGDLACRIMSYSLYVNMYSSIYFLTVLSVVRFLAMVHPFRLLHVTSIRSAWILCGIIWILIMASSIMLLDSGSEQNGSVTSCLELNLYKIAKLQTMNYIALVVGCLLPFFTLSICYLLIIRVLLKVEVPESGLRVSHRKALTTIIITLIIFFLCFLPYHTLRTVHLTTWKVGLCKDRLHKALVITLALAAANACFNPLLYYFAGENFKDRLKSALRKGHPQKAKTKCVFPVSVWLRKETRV
Procedure, shortened: as §1

GPR149 = biological target: T4, GPR149 (Homo sapiens, UniProt Q86SP6); experiment: PRESTO-Tango GPCR screen; assay type: cell-based; conditions: 100 µM
T4 construct: purchased PRESTO-Tango GPCR kit (Roth lab / Addgene)
T4 sequence (Q86SP6 whole entry): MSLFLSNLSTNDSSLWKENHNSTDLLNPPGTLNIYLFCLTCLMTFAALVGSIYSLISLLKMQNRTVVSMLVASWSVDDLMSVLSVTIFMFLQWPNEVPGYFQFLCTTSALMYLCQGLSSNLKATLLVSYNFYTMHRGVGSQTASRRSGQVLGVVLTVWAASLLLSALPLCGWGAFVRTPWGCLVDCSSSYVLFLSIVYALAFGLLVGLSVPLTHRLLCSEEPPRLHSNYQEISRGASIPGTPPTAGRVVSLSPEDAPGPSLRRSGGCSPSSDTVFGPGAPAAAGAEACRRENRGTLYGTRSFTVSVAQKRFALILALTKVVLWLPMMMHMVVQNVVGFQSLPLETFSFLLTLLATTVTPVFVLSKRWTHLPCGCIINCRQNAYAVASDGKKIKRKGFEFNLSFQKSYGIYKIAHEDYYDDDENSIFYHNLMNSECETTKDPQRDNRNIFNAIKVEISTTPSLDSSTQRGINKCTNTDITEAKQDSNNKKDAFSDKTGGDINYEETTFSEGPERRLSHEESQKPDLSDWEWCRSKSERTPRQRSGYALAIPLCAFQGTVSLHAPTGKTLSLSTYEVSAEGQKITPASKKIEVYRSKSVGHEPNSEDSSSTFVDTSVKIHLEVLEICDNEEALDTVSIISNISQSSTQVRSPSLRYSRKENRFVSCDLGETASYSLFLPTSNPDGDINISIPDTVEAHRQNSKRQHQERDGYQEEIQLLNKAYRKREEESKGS
Procedure, shortened: as §1

GPR173 = biological target: T5, GPR173 (Homo sapiens, UniProt Q9NS66); experiment: PRESTO-Tango GPCR screen; assay type: cell-based; conditions: 100 µM
T5 construct: purchased PRESTO-Tango GPCR kit (Roth lab / Addgene)
T5 sequence (Q9NS66 whole entry): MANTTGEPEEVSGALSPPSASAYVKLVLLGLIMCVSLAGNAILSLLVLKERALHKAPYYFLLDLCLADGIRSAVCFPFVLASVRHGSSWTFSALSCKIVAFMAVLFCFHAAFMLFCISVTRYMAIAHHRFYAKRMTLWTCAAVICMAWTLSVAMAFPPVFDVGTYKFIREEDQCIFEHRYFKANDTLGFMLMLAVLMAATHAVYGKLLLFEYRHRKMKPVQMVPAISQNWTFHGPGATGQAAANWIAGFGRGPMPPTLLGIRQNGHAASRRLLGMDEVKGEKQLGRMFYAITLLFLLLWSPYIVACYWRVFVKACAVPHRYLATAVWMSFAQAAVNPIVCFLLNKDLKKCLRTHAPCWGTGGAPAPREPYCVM
Procedure, shortened: as §1

[1] = test system: 314-member panel of human G protein-coupled receptors (GPCRs); experiment: PRESTO-Tango screen of 314-member human GPCR panel; assay type: cell-based; conditions: 100 µM, HTLA cells
Experimental: The PRESTO-Tango analyses were performed as previously published. Briefly, HTLA cells, a HEK293 cell line that stably expresses β-arrestin-TEV and tTA-Luciferase (a kind gift from Gilad Barnea, Brown University), were plated in 96-well tissue culture plates (Eppendorf) in DMEM containing 10% FBS and 1% Penicillin/Streptomycin. One day after plating (after reaching approximately 90% confluence), 200 ng per well GPCR-Tango plasmids[37] in 20 μL DMEM were individually mixed with 400 ng polyethylenimine (Polysciences) in an equal volume of DMEM and incubated for 20 min at room temperature before adding the transfection mixture to the HTLA cells. 16-24 h after transfection, medium was replaced with 180 μL fresh DMEM containing 1% Penicillin/Streptomycin and 10 mM HEPES and 20 μL of 3 or 3-Homo to reach a final concentration of 100 μM. Supernatants were aspirated 20 h after stimulation and 50 μl per well of Bright-Glo solution (Promega) diluted 20-fold with PBS containing 20 mM HEPES was added into each well. After 15 min incubation at room temperature, luminescence was quantified using a Spectramax i3x microplate reader (Molecular Devices). Activation fold for each sample was calculated by dividing relative luminescence units (RLU) for each condition by RLUs from PBS control. […]

| SMILES | number of differentially regulated genes (∆pyr K. oxytoca; one hour, vs DMSO, Padj < 0.05, abs(log2FC) > 1) | effect on enterobactin BGC transcription (∆pyr K. oxytoca; vs DMSO control, RNA-seq) | KEGG pathway enrichment neglogP: ABC Transporters, upregulated (∆pyr K. oxytoca; Funage-Pro, 3 upreg) | KEGG pathway enrichment neglogP: Biosynthesis of siderophore group nonribosomal peptides, upregulated (∆pyr K. oxytoca; Funage-Pro, 3 upreg) | effect on yersiniabactin BGC transcription (∆pyr K. oxytoca; RNA-seq, pyrazinone 3 compared with pyrazine 7) | GPCR activation (heatmap value) (CXCR4) | GPCR activation (heatmap value) (PTH1R) | GPCR activation (heatmap value) (CYSLTR2) | GPCR activation (heatmap value) (GPR149) | GPCR activation (heatmap value) (GPR173) | selectivity across the GPCR panel [1] |
| --- | --- | --- | --- | --- | --- | --- | --- | --- | --- | --- | --- |
| CC(C)Cc1ncc(CCCNC(=N)N)[nH]c1=O [compound 3] | 561 genes | significantly enhanced transcription of the enterobactin BGC | 5.638 | 9.097 | prominently upregulated the yersiniabactin BGC | -0.06133 | 0.5796 | -0.2194 | 0.9394 | -0.2495 | selective agonists for histamine receptor H4 |
| CC(C)Cc1ncc(CCCCNC(=N)N)[nH]c1=O [3-Homo] |  |  |  |  |  | 0.1574 | -0.1159 | -0.09894 | 0.01685 | -0.8728 | selective agonists for histamine receptor H4 |
